Columns and labels:
JAR200 cells = assay: Effect of fluorogens on yeast cell growth; type: cell-based; conditions: 500 nM fluorogen, 30° C.
Procedure: FIG. 17 is a graph depicting the effect of fluorogens on yeast cell growth. JAR200 cells are inoculated at ˜10^6 cells/ml into 35 ml SD+CAA medium in 125 ml baffled flasks and allowed to grow at 30° C. at 300 RPM for 2 hours prior to addition of fluorogens at the indicated concentrations. One ml samples are removed at indicated time points, and growth halted by addition of 75 μl of 300 mM NaN3 prior to reading absorbance. Doubling time of about 1.9 hrs is unchanged by most fluorogen treatments. For 500 nM MG-ester, the doubling time is about 2.8 hrs; and for 500 nM MG, the doubling time is over 24 hrs.

living NIH3T3 cells = assay: Entry of fluorogen controls into living cells; type: cell-based, mouse
[1] = comparison value; cited from earlier work

CN(C)c1ccc(C(=C2C=CC(=[N+](C)C)C=C2)c2ccccc2)cc1 [MG, malachite green, reference compound]
doubling time (JAR200 cells): over 24 hrs

2-[(1-(18-amino-4,9-diaza-12,15-dioxa-5,8-dioxo-octadecanyl)-4(111)-quinolinylidene)methyl-3-(3-sulfopropyl)benzothiazolinium]trifluoroacetate [TO1-2p]
entry into living cells (living NIH3T3 cells): did not enter living NIH3T3 cells

CCOC(=O)CCCc1ccc([C+](c2ccc(N(C)C)cc2)c2ccc(N(C)C)cc2)cc1.[Cl-] [MG-ester, Methylium, bis[4-(dimethylamino)phenyl](4-(3-carboethoxypropyl)phenyl)-chloride]
doubling time (JAR200 cells): about 2.8 hrs

O=C(O)c1ccccc1-c1c2ccc(=O)c([As]3SCCS3)c-2oc2c([As]3SCCS3)c(O)ccc12 [F1AsH-EDT2]
fluorescence increase on binding cognate tetracysteine peptide [1]: 50,000 fold

Reference: patent US9688743B2, “Optical biosensors” (Carnegie Mellon University, priority 2007, dated 2017)
